Here are results for 9 compounds from US20250230193A1, “CYCLIC COMPOUND HAVING SELECTIVE KRAS INHIBITORY EFFECT ON HRAS AND NRAS” (CHUGAI SEIYAKU KABUSHIKI KAISHA, priority 2022, published 2025).

Experiment [1] has as its target GDP-bound NRAS wild-type protein (Homo sapiens, UniProt P01111). The experiment can be described thus: Binding to NRAS by surface plasmon resonance (SPR), Single Cycle Kinetics. As to conditions: KD ratio NRAS/KRAS, SPR, GDP-bound wild-type proteins.
In experiment [2] the target is GDP-bound HRAS wild-type protein (Homo sapiens, UniProt P01112). The experiment can be described thus: Binding to HRAS by surface plasmon resonance (SPR), Single Cycle Kinetics. As to conditions: KD ratio HRAS/KRAS, SPR, GDP-bound wild-type proteins.
Chain of GDP-bound HRAS wild-type protein (P01112 whole entry): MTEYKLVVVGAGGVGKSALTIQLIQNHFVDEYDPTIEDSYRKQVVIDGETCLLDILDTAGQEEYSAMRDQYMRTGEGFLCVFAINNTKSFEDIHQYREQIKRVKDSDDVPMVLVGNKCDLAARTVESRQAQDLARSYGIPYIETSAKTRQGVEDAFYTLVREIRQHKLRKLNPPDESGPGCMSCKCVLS

Chain of GDP-bound NRAS wild-type protein (P01111 whole entry): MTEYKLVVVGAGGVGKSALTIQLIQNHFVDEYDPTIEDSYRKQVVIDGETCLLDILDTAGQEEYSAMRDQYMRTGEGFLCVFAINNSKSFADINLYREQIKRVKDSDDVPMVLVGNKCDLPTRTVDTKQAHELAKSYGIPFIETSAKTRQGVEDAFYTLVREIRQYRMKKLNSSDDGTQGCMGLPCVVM

For the compound `CCCO[C@@H]1C[C@H]2C(=O)NC3(CC(C)(C)C3)C(=O)N(C)[C@@H](C3CCCC3)C(=O)N(C)[C@H](C(=O)N(C)C)CC(=O)N(C)[C@H]3CCCCc4ccc(cc4)C[C@@H](C(=O)N(C)CC(=O)N[C@@H](CCc4ccc(Cl)c(Cl)c4)C(=O)N2C1)N1CC/C=C\C[C@@H](C1=O)N(C)C(=O)CN(C)C(=O)[C@H]([C@@H](C)CC)NC3=O` [PP3092], in experiment [1], the “NRAS/KRAS (ratio of KD value with respect to GDP-bound NRAS wild-type protein to KD value with respect to KRAS)” value is “A (a compound having 10 or more and less than 20 is denoted as A)”. In experiment [2], the “HRAS/KRAS (ratio of KD value with respect to GDP-bound HRAS wild-type protein to KD value with respect to KRAS)” value is “A (a compound having 10 or more and less than 20 is denoted as A)”.

Turning to `CCCO[C@@H]1C[C@H]2C(=O)NC3(CC(C)(C)C3)C(=O)N(C)[C@@H](C3CCCC3)C(=O)N(C)[C@H](C(=O)N3CCCC3)CC(=O)N(C)[C@H]3CCCCc4ccc(cc4)C[C@@H](C(=O)N(C)CC(=O)N[C@@H](CCc4ccc(C(F)(F)F)c(OC)c4)C(=O)N2C1)N1CC/C=C\C[C@@H](C1=O)N(C)C(=O)CN(C)C(=O)[C@H]([C@@H](C)CC)NC3=O` [PP3094, (1S,7S,11R,13S,19S,22S,26S,29S,35S,37Z)-19-cyclopentyl-7-[2-[3-methoxy-4-(trifluoromethyl)phenyl]ethyl]-3,3′,3′,18,21,25,31,34-octamethyl-29-[(1S)-1-methylpropyl]-11-propoxy-22-(pyrrolidine-1-carbonyl)spiro[3,6,9,15,18,21,25,28,31,34,41-undecazapentacyclo[24.15.9.2^43,46.1^35,41.0^9,13]tripentaconta-37,43(52),44,46(51)-tetraene-16,1′-cyclobutane]-2,5,8,14,17,20,24,27,30,33,53-undecone], the “NRAS/KRAS (ratio of KD value with respect to GDP-bound NRAS wild-type protein to KD value with respect to KRAS)” value in experiment [1] was “A (a compound having 10 or more and less than 20 is denoted as A)”. Also, the “HRAS/KRAS (ratio of KD value with respect to GDP-bound HRAS wild-type protein to KD value with respect to KRAS)” value in experiment [2] is “B (a compound having 3 or more and less than 10 is denoted as B)”.

As to `CCC[C@H]1C(=O)N[C@@H]([C@@H](C)CC)C(=O)N(C2CC2)CC(=O)N(C)[C@H]2C/C=C\CCN(C2=O)[C@@H](Cc2ccc(C(F)(F)F)cc2)C(=O)N(C)CC(=O)N[C@@H](CCc2ccc(C(F)(F)F)c(OC)c2)C(=O)N2C[C@H](OCC)C[C@H]2C(=O)N(C)C2(CCC2)C(=O)N(C)[C@@H](C2CCCC2)C(=O)N(C)[C@H](C(=O)N2CCCCC2)CC(=O)N1C` [PP3095, (2S,8S,12R,14S,20S,23S,27S,30S,36S,38Z)-20-cyclopentyl-32-cyclopropyl-12-ethoxy-8-[2-[3-methoxy-4-(trifluoromethyl)phenyl]ethyl]-4,16,19,22,26,35-hexamethyl-30-[(1S)-1-methylpropyl]-23-(piperidine-1-carbonyl)-27-propyl-2-[[4-(trifluoromethyl)phenyl]methyl]spiro[1,4,7,10,16,19,22,26,29,32,35-undecazatricyclo[34.5.1.0^10,14]dotetracont-38-ene-17,1′-cyclobutane]-3,6,9,15,18,21,25,28,31,34,42-undecone], the “NRAS/KRAS (ratio of KD value with respect to GDP-bound NRAS wild-type protein to KD value with respect to KRAS)” value in experiment [1] was “A (a compound having 10 or more and less than 20 is denoted as A)”. The “HRAS/KRAS (ratio of KD value with respect to GDP-bound HRAS wild-type protein to KD value with respect to KRAS)” value in experiment [2] is “A (a compound having 10 or more and less than 20 is denoted as A)”.

`CCC[C@H]1C(=O)N[C@@H]([C@@H](C)CC)C(=O)N(C2CC2)CC(=O)N(C)[C@H]2C/C=C\CCN(C2=O)[C@@H](Cc2ccc(C(F)(F)F)cc2)C(=O)N(C)CC(=O)N[C@@H](CCc2ccc(C(F)(F)F)c(OC)c2)C(=O)N2C[C@H](OCC)C[C@H]2C(=O)N(C)C2(CCC2)C(=O)N(C)[C@@H](C2CCCC2)C(=O)N(C)[C@H](C(=O)N2CCCC2)CC(=O)N1C` [PP3097]: the “NRAS/KRAS (ratio of KD value with respect to GDP-bound NRAS wild-type protein to KD value with respect to KRAS)” value in experiment [1] was “A (a compound having 10 or more and less than 20 is denoted as A)”. Further, the “HRAS/KRAS (ratio of KD value with respect to GDP-bound HRAS wild-type protein to KD value with respect to KRAS)” value in experiment [2] is “A (a compound having 10 or more and less than 20 is denoted as A)”.

Take `CCC[C@H]1C(=O)N[C@@H]([C@@H](C)CC)C(=O)N(C2CC2)CC(=O)N(C)[C@H]2C/C=C\CCN(C2=O)[C@@H](Cc2ccc(C)cc2)C(=O)N(C)CC(=O)N[C@@H](CCc2ccc(C(F)(F)F)c(OC)c2)C(=O)N2C[C@H](OCC)C[C@H]2C(=O)N(C)C2(CCC2)C(=O)N(C)[C@@H](C2CCCC2)C(=O)N(C)[C@H](C(=O)N2CCCC2)CC(=O)N1C` [PP3098, (2S,8S,12R,14S,20S,23S,27S,30S,36S,38Z)-20-cyclopentyl-32-cyclopropyl-12-ethoxy-8-[2-[3-methoxy-4-(trifluoromethyl)phenyl]ethyl]-4,16,19,22,26,35-hexamethyl-30-[(1S)-1-methylpropyl]-27-propyl-2-(p-tolylmethyl)-23-(pyrrolidine-1-carbonyl)spiro[1,4,7,10,16,19,22,26,29,32,35-undecazatricyclo[34.5.1.0^10,14]dotetracont-38-ene-17,1′-cyclobutane]-3,6,9,15,18,21,25,28,31,34,42-undecone]: the “NRAS/KRAS (ratio of KD value with respect to GDP-bound NRAS wild-type protein to KD value with respect to KRAS)” value in experiment [1] was “A (a compound having 10 or more and less than 20 is denoted as A)”. Besides, in experiment [2], the “HRAS/KRAS (ratio of KD value with respect to GDP-bound HRAS wild-type protein to KD value with respect to KRAS)” value is “A (a compound having 10 or more and less than 20 is denoted as A)”.

Turning to `CCC[C@H]1C(=O)N[C@@H]([C@@H](C)CC)C(=O)N2CCC[C@H]2C(=O)N(C)[C@H]2C/C=C\CCN(C2=O)[C@@H](Cc2ccc(C(F)(F)F)cc2)C(=O)N(C)CC(=O)N[C@@H](CCc2ccc(C(F)(F)F)c(OC)c2)C(=O)N2C[C@H](OCC)C[C@H]2C(=O)N(C)C2(CCC2)C(=O)N(C)[C@@H](C2CCCC2)C(=O)N(C)[C@H](C(=O)N2CCCCC2)CC(=O)N1C` [PP3099], the “NRAS/KRAS (ratio of KD value with respect to GDP-bound NRAS wild-type protein to KD value with respect to KRAS)” value in experiment [1] is “A (a compound having 10 or more and less than 20 is denoted as A)”. For the same compound, in experiment [2], the “HRAS/KRAS (ratio of KD value with respect to GDP-bound HRAS wild-type protein to KD value with respect to KRAS)” value is “A (a compound having 10 or more and less than 20 is denoted as A)”.

With `CCC[C@H]1C(=O)N[C@@H]([C@@H](C)CC)C(=O)N2CCC[C@H]2C(=O)N(C)[C@H]2C/C=C\CCN(C2=O)[C@@H](Cc2ccc(C)cc2)C(=O)N(C)CC(=O)N[C@@H](CCc2ccc(C(F)(F)F)c(OC)c2)C(=O)N2C[C@H](OCC)C[C@H]2C(=O)N(C)C2(CCC2)C(=O)N(C)[C@@H](C2CCCC2)C(=O)N(C)[C@H](C(=O)N2CCCCC2)CC(=O)N1C` [PP3100, (1S,4S,10S,13S,17S,20S,26S,28R,32S,38S,42Z)-20-cyclopentyl-28-ethoxy-32-[2-[3-methoxy-4-(trifluoromethyl)phenyl]ethyl]-2,14,18,21,24,36-hexamethyl-10-[(1S)-1-methylpropyl]-17-(piperidine-1-carbonyl)-13-propyl-38-(p-tolylmethyl)spiro[2,8,11,14,18,21,24,30,33,36,39-undecazatetracyclo[37.5.1.0^4,8.0^26,30]pentatetracont-42-ene-23,1′-cyclobutane]-3,9,12,15,19,22,25,31,34,37,45-undecone], in experiment [1], the “NRAS/KRAS (ratio of KD value with respect to GDP-bound NRAS wild-type protein to KD value with respect to KRAS)” value is “A (a compound having 10 or more and less than 20 is denoted as A)”. For the same compound, the “HRAS/KRAS (ratio of KD value with respect to GDP-bound HRAS wild-type protein to KD value with respect to KRAS)” value in experiment [2] is “B (a compound having 3 or more and less than 10 is denoted as B)”.

Regarding `CCC[C@H]1C(=O)N[C@@H]([C@@H](C)CC)C(=O)N2CCC[C@H]2C(=O)N(C)[C@H]2C/C=C\CCN(C2=O)[C@@H](Cc2ccc(C(F)(F)F)cc2)C(=O)N(C)CC(=O)N[C@@H](CCc2ccc(C(F)(F)F)c(OC)c2)C(=O)N2C[C@H](OCC)C[C@H]2C(=O)N(C)C2(CCC2)C(=O)N(C)[C@@H](C2CCCC2)C(=O)N(C)[C@H](C(=O)N2CCCC2)CC(=O)N1C` [PP3101], the “NRAS/KRAS (ratio of KD value with respect to GDP-bound NRAS wild-type protein to KD value with respect to KRAS)” value in experiment [1] is “A (a compound having 10 or more and less than 20 is denoted as A)”. Moreover, the “HRAS/KRAS (ratio of KD value with respect to GDP-bound HRAS wild-type protein to KD value with respect to KRAS)” value in experiment [2] was “A (a compound having 10 or more and less than 20 is denoted as A)”.

Turning to `CCC[C@H]1C(=O)N[C@@H]([C@@H](C)CC)C(=O)N2CCC[C@H]2C(=O)N(C)[C@H]2C/C=C\CCN(C2=O)[C@@H](Cc2ccc(C)cc2)C(=O)N(C)CC(=O)N[C@@H](CCc2ccc(C(F)(F)F)c(OC)c2)C(=O)N2C[C@H](OCC)C[C@H]2C(=O)N(C)C2(CCC2)C(=O)N(C)[C@@H](C2CCCC2)C(=O)N(C)[C@H](C(=O)N2CCCC2)CC(=O)N1C` [PP3102, (1S,4S,10S,13S,17S,20S,26S,28R,32S,38S,42Z)-20-cyclopentyl-28-ethoxy-32-[2-[3-methoxy-4-(trifluoromethyl)phenyl]ethyl]-2,14,18,21,24,36-hexamethyl-10-[(1S)-1-methylpropyl]-13-propyl-38-(p-tolylmethyl)-17-(pyrrolidine-1-carbonyl)spiro[2,8,11,14,18,21,24,30,33,36,39-undecazatetracyclo[37.5.1.0^4,8.0^26,30]pentatetracont-42-ene-23,1′-cyclobutane]-3,9,12,15,19,22,25,31,34,37,45-undecone], in experiment [1], the “NRAS/KRAS (ratio of KD value with respect to GDP-bound NRAS wild-type protein to KD value with respect to KRAS)” value was “A (a compound having 10 or more and less than 20 is denoted as A)”. For the same compound, in experiment [2], the “HRAS/KRAS (ratio of KD value with respect to GDP-bound HRAS wild-type protein to KD value with respect to KRAS)” value was “A (a compound having 10 or more and less than 20 is denoted as A)”.
